Laboratory results reported in patent US20120230914A1, “LABELING COMPOUND FOR PET” (RIKEN, priority 2009, published 2012).

Legend:
aromatase [1] = molecular target: T1, aromatase (Macaca mulatta, UniProt A0A1D5QZ23); experiment: PET measurement (binding potential images and SUV in brain regions); conditions: for binding potential (difference among the compounds): Rhesus macaques, relative to Compounds (10), (22), (33), (39); for specific binding in amygdala (binding potential images): male Rhesus macaques, i.v. 33 MBq/kg, 90 min scan, cerebellum as reference region
T1 sequence (A0A1D5QZ23 1-503): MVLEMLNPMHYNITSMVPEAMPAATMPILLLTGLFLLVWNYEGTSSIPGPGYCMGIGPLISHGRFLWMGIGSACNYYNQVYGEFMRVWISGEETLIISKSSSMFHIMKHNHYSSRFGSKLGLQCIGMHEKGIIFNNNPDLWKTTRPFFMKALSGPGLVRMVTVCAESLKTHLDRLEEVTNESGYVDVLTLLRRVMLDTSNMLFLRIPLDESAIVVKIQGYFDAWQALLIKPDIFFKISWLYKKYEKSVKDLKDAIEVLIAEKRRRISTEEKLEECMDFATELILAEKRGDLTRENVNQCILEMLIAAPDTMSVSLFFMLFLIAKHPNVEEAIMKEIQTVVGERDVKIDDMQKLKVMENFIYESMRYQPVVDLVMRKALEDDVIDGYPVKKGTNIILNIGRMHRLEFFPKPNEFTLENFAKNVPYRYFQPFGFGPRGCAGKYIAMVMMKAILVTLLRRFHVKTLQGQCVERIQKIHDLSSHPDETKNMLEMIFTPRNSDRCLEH
Method: (§1) (i) Male Rhesus macaques were subjected to PET measurement. Specifically, Rhesus macaques were put under sedation with ketalar (10 mg/kg), and intravenous catheters for RI administration were attached to their legs. Thereafter, the Rhesus macaques were anesthetized using propofol (10 mg/kg/h), and were immobilized in a PET scanner.
(§2) After reconstructing images, binding potential (BP) images with cerebellum as a reference region were constructed. The binding potential used herein indicates a value obtained by dividing an association rate constant by a dissociation rate constant.
(§3) SUV is a value obtained by dividing radioactivity density per 1 ml of tissue by radioactivity density per 1 g of body weight, i.e. SUV=radioactivity density per 1 ml of tissue/radioactivity density per 1 g of body weight.

aromatase [2] = experiment: as above; conditions: for temporal change in SUV (standardized uptake value) in the latter part of scanning: Rhesus macaques, cerebellum, amygdala, hypothalamus, nucleus accumbens
Method: as §1, §2, §3

aromatase [3] = molecular target: T2, aromatase (Rattus norvegicus, UniProt P22443); experiment: In vitro binding test (ligand saturation, Scatchard plot analysis); design: species or system rats
T2 construct: from tissue; host or cells: rat ovary homogenate (female rats)
T2 sequence (P22443 1-508): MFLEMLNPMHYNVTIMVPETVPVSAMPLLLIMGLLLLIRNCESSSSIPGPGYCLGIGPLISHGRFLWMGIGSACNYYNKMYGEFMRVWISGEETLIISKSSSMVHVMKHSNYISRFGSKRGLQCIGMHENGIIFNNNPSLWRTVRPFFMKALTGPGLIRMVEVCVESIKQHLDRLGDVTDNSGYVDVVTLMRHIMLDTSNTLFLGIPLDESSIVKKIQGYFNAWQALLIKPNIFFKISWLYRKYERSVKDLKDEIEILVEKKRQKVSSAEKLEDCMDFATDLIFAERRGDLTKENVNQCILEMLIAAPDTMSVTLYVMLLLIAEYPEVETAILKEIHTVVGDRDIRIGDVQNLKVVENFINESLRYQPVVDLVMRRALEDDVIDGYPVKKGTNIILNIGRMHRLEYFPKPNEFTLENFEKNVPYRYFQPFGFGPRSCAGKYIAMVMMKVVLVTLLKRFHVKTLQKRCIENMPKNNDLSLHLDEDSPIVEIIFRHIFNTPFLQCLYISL
Method: Specifically, female rats were anesthetized with diethyl ether, and 0.01 M phosphate buffered saline (PBS, pH 7.4) was perfused via hearts. Ovaries of the rats were removed immediately and homogenized in 1 mL of a 0.32 M sucrose solution.
After filtration, counting was performed by a γ counter, and the average of KD was calculated by Scatchard plot analysis.

aromatase [4] = molecular target: T1, aromatase; experiment: Replacement test with non-radiolabeled vorozole (PET binding potential); assay type: in vivo; design: allows quantifying aromatase in the brain with higher accuracy; from tissue; host or cells: brain of living male Rhesus macaques (amygdala, hypothalamus, nucleus accumbens); conditions: Rhesus macaques; after non-radiolabeled VOR 100 μg/kg; compared with VOR
Method: 5 min before administration of the Compound (10), non-radiolabeled vorozole (VOR) (100 μg/kg) was administered, and binding potential (BP) of Rhesus macaques were observed.

[5] = Reuptake of labeled metabolite: HPLC of blood and brain extracts after tail vein injection; assay type: in vivo; conditions: male rats, brain sampled 5, 10 and 20 min after injection
Method: 5, 10 and 20 min after the injection, bloods were sampled from aorta adbominalis and then the brains were taken out and homogenized. Acetonitrile was added to the bloods and homogenated brains and the resultants were subjected to centrifugation, and extracts were subjected to HPLC in order to measure labeled metabolites.
Data for “Monkey” shown in FIG. 8 was obtained by sampling vein blood along with PET imaging, centrifuging the sampled vein blood, adding acetonitrile to the blood plasma and centrifuging the blood plasma, and subjecting the extract to HPLC to measure parent compound in the blood plasma.

nonspecific binding of the labeled compound to cerebral cortex etc. (aromatase [2]; male Rhesus macaques, compared to conventional [11C]vorozole) | Kd (aromatase [3]; homogenized rat ovaries, room temperature, 30 min, nonspecific binding with 1 μM non-radiolabeled VOR, read-out: dissociation constant (KD)) | reuptake of labeled metabolite into the brain [5] | Structure (SMILES) | binding potential (difference among the compounds) (aromatase [1]) | specific binding in amygdala (binding potential images) (aromatase [1]) | temporal change in SUV (standardized uptake value) in the latter part of scanning (aromatase [2]) | affinity relative to VOR (aromatase [3]; from KD values) | amount of replaced binding (considered nonspecific binding) (aromatase [4])
 |  |  | [11CH3]c1cccc(CN(c2ccc(C#N)cc2)n2cnnc2)c1 [Compound (22), 4-{(3-[^11C]Methylbenzyl)(4H-1,2,4-triazol-4-yl)amino}benzonitrile] | relatively low binding potential | specific binding was observed in amygdala | decreases as time passes |  | 
decreased | 0.3 nM | such reuptake was not observed | [11CH3]c1ccc(CN(c2ccc(C#N)cc2)n2cnnc2)cc1 [Compound (10), 4-{(4-[^11C]Methylbenzyl)(4H-1,2,4-triazol-4-yl)amino}benzonitrile] |  | specific binding was observed in amygdala | decreases as time passes | approximately twice higher affinity than VOR | smaller amount of replaced binding than the case of VOR
 |  |  | [11CH3]c1ccc(CN(c2ccc([N+](=O)[O-])cc2)n2cnnc2)cc1 [Compound (33), 4-{(4-[^11C]Methylbenzyl)(4H-1,2,4-triazol-4-yl)amino}nitrobenzene] |  | specific binding was observed in amygdala | decreases as time passes |  | 
 |  |  | [11CH3]c1ccc(CN(c2ccc(C#N)cc2)n2cncn2)cc1 [Compound (39), 4-{(4-[^11C]Methylbenzyl)(1H-1,2,4-triazol-1-yl)amino}benzonitrile] | relatively high binding potential | specific binding was observed in amygdala | decreases as time passes |  | 
